Assay results as given in ChEMBL document CHEMBL1201862, “PubChem BioAssay data set” (2004).
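Compound exposure: 48 hours, 5 concentrations, 96-well plates. GI50 = concentration required for 50% inhibition of growth.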 Calls of active or inactive are those of the source. Rule as the data show it: active = GI50 up to about 1.1 µM and inactive = higher.

Assays:
Test in all cases: growth of human tumour cells (NCI), 48 h
[1] = tested on: Hs-578T
[2] = tested on: MDA-N
[3] = tested on: ACHN
[4] = tested on: SNB-19
[5] = tested on: OVCAR-4
[6] = tested on: NCI/ADR-RES
[7] = tested on: HOP-62
[8] = tested on: RPMI-8226
[9] = tested on: SK-OV-3
[10] = tested on: Malme-3M
[11] = tested on: SF-268
[12] = tested on: HL-60
[13] = tested on: EKVX
[14] = tested on: HCT-15
[15] = tested on: OVCAR-8
[16] = tested on: MOLT-4
[17] = tested on: MCF7
[18] = tested on: SW-620
[19] = tested on: UO-31
[20] = tested on: HCC 2998

Measured: GI50

CC(=O)CC(=O)Nc1ccc2ccccc2c1
inactive: [1] > 100 µM | [2] > 100 µM | [3] > 100 µM | [4] > 100 µM | [5] 29.4 µM | [6] 67.3 µM | [7] > 100 µM | [8] 45.6 µM | [9] > 100 µM | [10] > 100 µM | [11] > 100 µM | [12] > 100 µM | [13] > 100 µM | [15] > 100 µM | [16] 36.7 µM | [17] 74.3 µM | [18] > 100 µM
95.3 µM: [14]

O=S(=O)(Cc1cnc(O)nc1O)Cc1cnc(O)nc1O
> 100 µM: [14]
inactive: [1] > 100 µM | [2] > 100 µM | [3] > 100 µM | [4] > 100 µM | [5] > 100 µM | [6] > 100 µM | [8] > 100 µM | [10] > 100 µM | [11] > 100 µM | [13] > 100 µM | [19] > 100 µM | [15] > 100 µM | [16] > 100 µM | [17] > 100 µM | [18] > 100 µM

CC1(CCOCc2ccccc2)NC(=O)NC1=O (stereo not drawn)
inactive: [1] > 100 µM | [2] > 100 µM | [3] > 100 µM | [4] > 100 µM | [5] > 100 µM | [6] > 100 µM | [7] > 100 µM | [20] > 100 µM | [10] > 100 µM | [11] > 100 µM | [13] > 100 µM | [19] > 100 µM | [15] > 100 µM | [16] > 100 µM | [18] > 100 µM
> 100 µM: [14]

C[C@@]12c3c4ccc(C=O)c3Oc3ccc(C=O)c(c31)Oc1c(C=O)ccc(c12)O4
inactive: [1] > 100 µM | [2] > 100 µM | [3] > 100 µM | [4] > 100 µM | [5] > 100 µM | [6] > 100 µM | [7] > 100 µM | [8] > 100 µM | [20] > 100 µM | [9] > 100 µM | [10] > 100 µM | [11] > 100 µM | [13] > 100 µM | [19] > 100 µM | [15] > 100 µM | [16] > 100 µM | [17] > 100 µM | [18] > 100 µM
> 100 µM: [14]

Cc1cc(NC[C@H](O)[C@H](O)[C@H](O)CO)c(Sc2cc(=O)[nH]c(=O)[nH]2)cc1C
inactive: [1] > 62.5 µM | [2] > 62.5 µM | [3] > 62.5 µM | [4] > 62.5 µM | [5] > 62.5 µM | [6] > 62.5 µM | [7] > 62.5 µM | [8] > 62.5 µM | [20] > 62.5 µM | [9] > 62.5 µM | [10] > 62.5 µM | [11] > 62.5 µM | [13] > 62.5 µM | [19] > 62.5 µM | [15] > 62.5 µM | [16] > 62.5 µM | [17] > 62.5 µM | [18] > 62.5 µM
> 62.5 µM: [14]

CC(=O)c1c(N=[N+]=[N-])c2cccc3c2n(c1=O)CCC3
inactive: [1] 22.9 µM | [2] 18.5 µM | [3] 24.9 µM | [4] 32.3 µM | [5] 21 µM | [6] 19.2 µM | [7] 20 µM | [8] 25.9 µM | [20] 16.9 µM | [9] 46.7 µM | [10] 13.2 µM | [11] 18.6 µM | [13] 21.3 µM | [19] 30.2 µM | [16] 23.4 µM | [17] 19.8 µM | [18] 16 µM
19.7 µM: [14]
active: [15] 0.957 µM

C#CCn1c2c(c3ccccc3c1=O)C(=O)c1ccccc1-2
22.2 µM: [14]
inactive: [1] 15.8 µM | [2] 37.7 µM | [5] 11.4 µM | [6] 21.5 µM | [7] 11.9 µM | [8] 13 µM | [9] 27.4 µM | [10] 25.5 µM | [11] 14 µM | [12] 2.94 µM | [13] 16.3 µM | [19] 2 µM | [15] 19.6 µM | [16] 2.83 µM | [17] 9.06 µM | [18] 23.9 µM

COc1cc(Cc2nccc3cc(OC)c(OC)cc23)c(/N=N/N(C)C)cc1OC
5 µM: [14]
inactive: [1] 18.4 µM | [2] 19 µM | [3] 15.1 µM | [4] 30.6 µM | [5] 20.5 µM | [6] 23.1 µM | [7] 23.7 µM | [8] 4.73 µM | [20] 14.6 µM | [9] 18.5 µM | [10] 22.3 µM | [11] 22.1 µM | [13] 14.6 µM | [19] 10 µM | [15] 15.7 µM | [16] 5.27 µM | [17] 14.6 µM | [18] 7.94 µM
